Each structure is given as a SMILES string.

Test [1] deals with T1, human RORγ (Homo sapiens, UniProt P51449).
T1 construct: human RORγ, from Ser253 to Lys518; expressed in transfected cells; host or cells: CHO cells (Chinese hamster ovary), transient co-transfection with pG5-Luc
T1 sequence (P51449 253-518): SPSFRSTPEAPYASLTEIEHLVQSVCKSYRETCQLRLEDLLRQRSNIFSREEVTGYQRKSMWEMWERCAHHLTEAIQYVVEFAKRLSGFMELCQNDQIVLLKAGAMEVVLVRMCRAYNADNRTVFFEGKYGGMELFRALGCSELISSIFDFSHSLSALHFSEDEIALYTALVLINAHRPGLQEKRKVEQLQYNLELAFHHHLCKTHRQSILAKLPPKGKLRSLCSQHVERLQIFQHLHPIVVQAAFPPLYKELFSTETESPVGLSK
Briefly: In vitro assay of inhibitory effect against RORγ transcriptional activity (GAL4-hRORγ LBD luciferase reporter gene assay in CHO cells). The test is classed as cell-based. The note with it: for EC50: GAL4-hRORγ LBD / pG5-Luc in CHO cells, 2 days incubation; for hRORγ luciferase activity, %-of-control: value in parentheses beside the > EC50 bound, vehicle-control 0.2% DMSO alone = 100%. The method, boiled down: (§1)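 CHO cells, transient GAL4-RORγ LBD + pG5-Luc; cmpd 8 conc, 0.2% DMSO, 2 d, 37 °C, 5% CO2. SteadyLite luminescence, %-of-DMSO control (100%), EC50 by curve fit. Cytotoxic concentrations (resazurin) excluded.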
On the technique in general: A reporter such as luciferase makes a cellular process visible.

Test [2] deals with T2, mouse RORγ (Mus musculus, UniProt P51450).
T2 construct: mouse RORγ, from Ile251 to Lys516; expressed in transfected cells; host or cells: CHO cells (Chinese hamster ovary), transient co-transfection with pG5-Luc
T2 sequence (P51450 251-516): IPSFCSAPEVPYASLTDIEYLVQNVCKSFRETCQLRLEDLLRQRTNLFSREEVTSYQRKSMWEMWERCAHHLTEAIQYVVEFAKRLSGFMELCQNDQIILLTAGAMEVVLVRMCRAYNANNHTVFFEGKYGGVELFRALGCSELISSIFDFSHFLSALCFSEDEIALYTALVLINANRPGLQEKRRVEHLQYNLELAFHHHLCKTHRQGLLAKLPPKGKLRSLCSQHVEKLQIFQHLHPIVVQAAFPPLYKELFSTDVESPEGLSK
Briefly: In vitro assay of inhibitory effect against RORγ transcriptional activity (GAL4-mRORγ LBD luciferase reporter gene assay in CHO cells). In kind it is cell-based. The following applies: for EC50: GAL4-mRORγ LBD / pG5-Luc in CHO cells, 2 days incubation; for mRORγ luciferase activity, %-of-control: value in parentheses beside the > EC50 bound, vehicle-control 0.2% DMSO alone = 100%. The method, boiled down: as §1

A word on the EC50: it is the concentration at which the effect is half-maximal. A higher EC50 goes with weaker potency. Consider `CC(C)C1=CN(CC2(C(=O)O)CC2)C(=O)N[C@@]1(C)c1ccc(CCC(C)(C)C)c(Cl)c1` [Example 98], for which the EC50 in test [1] is 13 nM; in test [2] it was 18 nM.
As for `CC(C)(C)CCc1ccc([C@@]2(C)NC(=O)N([C@H]3C[C@H](C(=O)O)C3)C=C2C2CCOCC2)cc1Cl` [Example 99], the values for the EC50 in test [1] and in test [2] were 1510 nM and 2890 nM, respectively.
On to `CC(C)(C)CCc1ccc([C@]2(C)NC(=O)N([C@H]3C[C@H](C(=O)O)C3)C=C2C2CCOCC2)cc1Cl` [Example 100], for which the EC50 in test [1] was 20 nM; in test [2], 35 nM.
Take `CC(C)C1=CN([C@H]2C[C@H](C(=O)O)C2)C(=O)N[C@]1(C)c1cc(Cl)c(CCC(C)(C)C)cc1F` [Example 103]: in test [1], the EC50 is > 3200 nM and the “hRORγ luciferase activity, %-of-control” value was “(65%)”. Moreover, in test [2], the EC50 is > 3200 nM and the “mRORγ luciferase activity, %-of-control” value is recorded as “(50%)”.
Take `CC(C)C1=CN([C@H]2C[C@H](C(=O)O)C2)C(=O)N[C@@]1(C)c1cc(Cl)c(CCC(C)(C)C)cc1F` [Example 104]: the EC50 in test [1] was determined as 50 nM; in test [2], 31 nM.
On the same counts, the results for `CC(C)C1=CN([C@H]2C[C@H](CC(=O)O)C2)C(=O)N[C@@]1(C)c1ccc(CCC(C)(C)C)c(Cl)c1` [Example 108] are 16 nM and 21 nM.
With `CC(C)C1=CN(CCCC(=O)O)C(=O)N[C@]1(C)c1ccc(CCC2CCC2)c(Cl)c1` [Example 109], in test [1], the EC50 was > 8000 nM and the “hRORγ luciferase activity, %-of-control” value was “(60%)”. Also, in test [2], the EC50 is > 8000 nM and the “mRORγ luciferase activity, %-of-control” value is given as “(67%)”.
For the compound `CC(C)C1=CN(CCCC(=O)O)C(=O)N[C@@]1(C)c1ccc(CCC2CCC2)c(Cl)c1` [Example 110], the values for the 50% effective concentration (EC50) in test [1] and in test [2] were 11 nM and 10 nM, respectively.
`CC(C)C1=CN([C@H]2C[C@](C)(C(=O)O)C2)C(=O)N[C@]1(C)c1ccc(CCC(C)(C)C)c(Cl)c1` [Example 111]: the results for the EC50 in test [1] and in test [2] were 405 nM and 481 nM, respectively.
On the same counts, the results for `CC(C)C1=CN([C@H]2C[C@](C)(C(=O)O)C2)C(=O)N[C@@]1(C)c1ccc(CCC(C)(C)C)c(Cl)c1` [Example 112] are 21 nM and 19 nM.
On to `CC(C)C1=CN(CCC(=O)O)C(=O)N[C@@]1(C)c1ccc2c(c1)CC(C)(C)C2` [Example 113], for which the figures for the EC50 in test [1] and in test [2] were 3030 nM and 1400 nM, respectively.
Regarding `CC(C)C1=CN(CCC(=O)O)C(=O)N[C@]1(C)c1ccc(C2=CCC(C)(C)CC2)c(Cl)c1` [Example 115, 3-{(R)-4-[3-Chloro-4-(4,4-dimethyl-cyclohex-1-enyl)-phenyl]-5-isopropyl-4-methyl-2-oxo-3,4-dihydro-2H-pyrimidin-1-yl}-propionic Acid], in test [1], the EC50 was > 8000 nM and the “hRORγ luciferase activity, %-of-control” value is given as “(110%)”. For the same compound, in test [2], the EC50 was > 8000 nM and the “mRORγ luciferase activity, %-of-control” value is listed as “(100%)”.
`CC(C)C1=CN(CCC(=O)O)C(=O)N[C@@]1(C)c1ccc(C2=CCC(C)(C)CC2)c(Cl)c1` [Example 116, 3-{(S)-4-[3-chloro-4-(4,4-dimethyl-cyclohex-1-enyl)-phenyl]-5-isopropyl-4-methyl-2-oxo-3,4-dihydro-2H-pyrimidin-1-yl}-propionic Acid]: the EC50 in test [1] was 15 nM; in test [2] it was 22 nM.
On to `CC(C)C1=CN(CCC(=O)O)C(=O)N[C@]1(C)c1ccc(C2CCC(C)(C)CC2)c(Cl)c1` [Example 117], for which, in test [1], the EC50 is > 3200 nM and the “hRORγ luciferase activity, %-of-control” value is on record as “(106%)”. In addition, in test [2], the EC50 is > 8000 nM and the “mRORγ luciferase activity, %-of-control” value is “(76%)”.
On to `CC(C)C1=CN(CCC(=O)O)C(=O)N[C@@]1(C)c1ccc(C2CCC(C)(C)CC2)c(Cl)c1` [Example 118], for which the EC50 was 19 nM in test [1] and 17 nM in test [2].
Take `CC(C)C1=CN(CCC(=O)O)C(=O)N[C@]1(C)c1ccc(CCC2CCCC2)c(Cl)c1` [Example 119]: in test [1], the EC50 was > 8000 nM and the “hRORγ luciferase activity, %-of-control” value is “(74%)”. In test [2], the EC50 was > 8000 nM and the “mRORγ luciferase activity, %-of-control” value was “(76%)”.
As for `CC(C)C1=CN(CCC(=O)O)C(=O)N[C@@]1(C)c1ccc(CCC2CCCC2)c(Cl)c1` [Example 120], the EC50 was 61 nM in test [1] and 14 nM in test [2].
As to `CC(C)C1=CN(CCC(=O)O)C(=O)N[C@]1(C)c1ccc(CCC2CCC2)c(Cl)c1` [Example 121], in test [1], the EC50 was > 8000 nM and the “hRORγ luciferase activity, %-of-control” value is listed as “(62%)”. Besides, in test [2], the EC50 is > 8000 nM and the “mRORγ luciferase activity, %-of-control” value is “(85%)”.
Consider `CC(C)C1=CN(CCC(=O)O)C(=O)N[C@@]1(C)c1ccc(CCC2CCC2)c(Cl)c1` [Example 122], for which the concentration giving a half-maximal response (EC50) in test [1] was determined as 28 nM; in test [2] it was 15 nM.
For the compound `CC(C)C1=CN(CCC(=O)O)C(=O)N[C@]1(C)c1ccc(CCCC(C)(C)C)c(Cl)c1` [Example 123], in test [1], the EC50 was > 3200 nM and the “hRORγ luciferase activity, %-of-control” value is “(109%)”. In test [2], the EC50 was > 3200 nM and the “mRORγ luciferase activity, %-of-control” value is on record as “(100%)”.
Consider `CC(C)C1=CN(CCC(=O)O)C(=O)N[C@@]1(C)c1ccc(CCCC(C)(C)C)c(Cl)c1` [Example 124], for which the results for the EC50 in test [1] and in test [2] were > 512 nM and 30 nM, respectively. Further, in test [1], the “hRORγ luciferase activity, %-of-control” value is “(54%)”.
Turning to `CC(C)C1=CN(CCC(=O)O)C(=O)N[C@@]1(C)c1ccc(OCCC(C)(C)C)c(Cl)c1` [Example 125], the EC50 in test [1] and in test [2] was < 32 nM throughout.
`CC(C)C1=CN(CCC(=O)O)C(=O)N[C@@]1(C)c1ccc(OCC(C)(C)C)c(Cl)c1` [Example 126]: the EC50 worked out at 37 nM in test [1] and 27 nM in test [2].
On to `COCCOc1ccc([C@]2(C)NC(=O)N(CCC(=O)O)C=C2C(C)C)cc1Cl` [Example 127], for which the EC50 was determined as 2940 nM in test [1] and 1950 nM in test [2].
As to `CC(C)C1=CN(CCC(=O)O)C(=O)N[C@]1(C)c1ccc(CCCC(F)(F)F)c(Cl)c1` [Example 128], in test [1], the EC50 was > 20000 nM and the “hRORγ luciferase activity, %-of-control” value is on record as “(66%)”. Also, in test [2], the EC50 was > 20000 nM and the “mRORγ luciferase activity, %-of-control” value was “(54%)”.
For the compound `CC(C)C1=CN(CCC(=O)O)C(=O)N[C@@]1(C)c1ccc(CCCC(F)(F)F)c(Cl)c1` [Example 129], the values for the EC50 in test [1] and in test [2] were 47 nM and < 32 nM, respectively.
In the case of `CC(C)C1=CN(CCC(=O)O)C(=O)N[C@]1(C)c1ccc(CCC2(C)CC2)c(Cl)c1` [Example 131], in test [1], the EC50 is > 8000 nM and the “hRORγ luciferase activity, %-of-control” value is “(77%)”. Moreover, in test [2], the EC50 was > 8000 nM and the “mRORγ luciferase activity, %-of-control” value is on record as “(81%)”.
Regarding `CC(C)C1=CN(CCC(=O)O)C(=O)N[C@@]1(C)c1ccc(CCC2(C)CC2)c(Cl)c1` [Example 132], the EC50 in test [1] was found to be 18 nM; in test [2] it was 14 nM.
Regarding `CC(C)C1=CN(CCC(=O)O)C(=O)N[C@]1(C)c1ccc(C2=CCCCC2)c(Cl)c1` [Example 133], in test [1], the EC50 was > 8000 nM and the “hRORγ luciferase activity, %-of-control” value was “(71%)”. In test [2], the EC50 was > 8000 nM and the “mRORγ luciferase activity, %-of-control” value is “(88%)”.
Take `CC(C)C1=CN(CCC(=O)O)C(=O)N[C@@]1(C)c1ccc(C2=CCCCC2)c(Cl)c1` [Example 134]: the 50% effective concentration (EC50) in test [1] was determined as 70 nM; in test [2], 27 nM.
On to `CC(C)C1=CN(CCC(=O)O)C(=O)N[C@]1(C)c1ccc(C2CCCCC2)c(Cl)c1` [Example 135], for which, in test [1], the EC50 is > 8000 nM and the “hRORγ luciferase activity, %-of-control” value is on record as “(90%)”. In test [2], the half-maximal effective concentration (EC50) is > 8000 nM and the “mRORγ luciferase activity, %-of-control” value is “(84%)”.
Regarding `CC(C)C1=CN(CCC(=O)O)C(=O)N[C@@]1(C)c1ccc(C2CCCCC2)c(Cl)c1` [Example 136], the values for the EC50 in test [1] and in test [2] were 94 nM and 49 nM, respectively.
On the same counts, the results for `CC(C)CC1=CN(CCC(=O)O)C(=O)N[C@@]1(C)c1ccc(CCC(C)(C)C)c(Cl)c1` [Example 137] are 15 nM and 11 nM.
Turning to `CC(C)C1=CN(CCC(=O)O)C(=O)N[C@]1(C)c1ccc(CCC2CCCCC2)c(Cl)c1` [Example 138], in test [1], the EC50 was > 8000 nM and the “hRORγ luciferase activity, %-of-control” value is reported as “(85%)”. Moreover, in test [2], the EC50 is > 8000 nM and the “mRORγ luciferase activity, %-of-control” value is recorded as “(96%)”.
As for `CC(C)C1=CN(CCC(=O)O)C(=O)N[C@@]1(C)c1ccc(CCC2CCCCC2)c(Cl)c1` [Example 139], in test [1], the EC50 is > 512 nM and the “hRORγ luciferase activity, %-of-control” value is reported as “(110%)”. In addition, the midpoint of the response in test [2], the EC50, lay at 27 nM.
For `CC(C)C1=CN(CCC(=O)O)C(=O)N[C@@]1(C)c1ccc(OCCC(F)(F)F)c(Cl)c1` [Example 140], the values for the EC50 in test [1] and in test [2] were 209 nM and 139 nM, respectively.

The record behind these values is patent publication US10196363B2, “Dihydropyrimidin-2-one compounds and medical use thereof” (JAPAN TOBACCO INC., priority 2014, dated 2019).
